From patent publication US8192962B2, “Processes for detecting toxic substances” (Daikin Industries, Ltd., priority 2001, dated 2012)

System: Detoxification protein genes
Assay: DNA chip mRNA expression in yeast, detoxification protein genes (Table 8)
Format: cell-based, Saccharomyces cerevisiae S288C
Method in brief: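 Whole-genome yeast DNA chip hybridization (65° C., >12 h) of Cy-labeled cDNA from S288C cells exposed 2 h at 25° C. to a sub-lethal toxicant dose in YPD; value is intensity relative to chemical-free control.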

CCCCC[C@H](O)CC(=O)CCc1ccc(O)c(OC)c1 [(13), gingerol]
The level of expressed mRNA in the presence of chemical substance/The level of expressed mRNA in the absence of chemical substance (yeast gene YBL064C): 4.1
The level of expressed mRNA in the presence of chemical substance/The level of expressed mRNA in the absence of chemical substance (yeast gene YBR244W): 0.4
The level of expressed mRNA in the presence of chemical substance/The level of expressed mRNA in the absence of chemical substance (yeast gene YBR293W): 3.0
The level of expressed mRNA in the presence of chemical substance/The level of expressed mRNA in the absence of chemical substance (yeast gene YDL168W): 1.3
The level of expressed mRNA in the presence of chemical substance/The level of expressed mRNA in the absence of chemical substance (yeast gene YDR256C): 1.1
The level of expressed mRNA in the presence of chemical substance/The level of expressed mRNA in the absence of chemical substance (yeast gene YDR453C): 1.4
The level of expressed mRNA in the presence of chemical substance/The level of expressed mRNA in the absence of chemical substance (yeast gene YDR538W): 0.7
The level of expressed mRNA in the presence of chemical substance/The level of expressed mRNA in the absence of chemical substance (yeast gene YEL027W): 0.7
The level of expressed mRNA in the presence of chemical substance/The level of expressed mRNA in the absence of chemical substance (yeast gene YER185W): 2.1
The level of expressed mRNA in the presence of chemical substance/The level of expressed mRNA in the absence of chemical substance (yeast gene YFL050C): 1.2
The level of expressed mRNA in the presence of chemical substance/The level of expressed mRNA in the absence of chemical substance (yeast gene YGR088W): 1.2
The level of expressed mRNA in the presence of chemical substance/The level of expressed mRNA in the absence of chemical substance (yeast gene YGR138C): 0.6
The level of expressed mRNA in the presence of chemical substance/The level of expressed mRNA in the absence of chemical substance (yeast gene YGR209C): 1.4
The level of expressed mRNA in the presence of chemical substance/The level of expressed mRNA in the absence of chemical substance (yeast gene YHR008C): 1.2
The level of expressed mRNA in the presence of chemical substance/The level of expressed mRNA in the absence of chemical substance (yeast gene YHR048W): 1.1
The level of expressed mRNA in the presence of chemical substance/The level of expressed mRNA in the absence of chemical substance (yeast gene YIR002C): 1.2
The level of expressed mRNA in the presence of chemical substance/The level of expressed mRNA in the absence of chemical substance (yeast gene YJL101C): 1.0
The level of expressed mRNA in the presence of chemical substance/The level of expressed mRNA in the absence of chemical substance (yeast gene YKL064W): 1.6
The level of expressed mRNA in the presence of chemical substance/The level of expressed mRNA in the absence of chemical substance (yeast gene YKR066C): 0.6
The level of expressed mRNA in the presence of chemical substance/The level of expressed mRNA in the absence of chemical substance (yeast gene YKR106W): 1.4
The level of expressed mRNA in the presence of chemical substance/The level of expressed mRNA in the absence of chemical substance (yeast gene YLL028W): 4.1
The level of expressed mRNA in the presence of chemical substance/The level of expressed mRNA in the absence of chemical substance (yeast gene YLL057C): 1.4
The level of expressed mRNA in the presence of chemical substance/The level of expressed mRNA in the absence of chemical substance (yeast gene YLR046C): 1.2
The level of expressed mRNA in the presence of chemical substance/The level of expressed mRNA in the absence of chemical substance (yeast gene YML028W): 1.6
The level of expressed mRNA in the presence of chemical substance/The level of expressed mRNA in the absence of chemical substance (yeast gene YMR015C): 0.4
The level of expressed mRNA in the presence of chemical substance/The level of expressed mRNA in the absence of chemical substance (yeast gene YMR038C): 1.7
The level of expressed mRNA in the presence of chemical substance/The level of expressed mRNA in the absence of chemical substance (yeast gene YNL239W): 3.6
The level of expressed mRNA in the presence of chemical substance/The level of expressed mRNA in the absence of chemical substance (yeast gene YNL241C): 4.9
The level of expressed mRNA in the presence of chemical substance/The level of expressed mRNA in the absence of chemical substance (yeast gene YNL259C): 1.1
The level of expressed mRNA in the presence of chemical substance/The level of expressed mRNA in the absence of chemical substance (yeast gene YOL158C): 1.4
The level of expressed mRNA in the presence of chemical substance/The level of expressed mRNA in the absence of chemical substance (yeast gene YOR251C): 1.0
The level of expressed mRNA in the presence of chemical substance/The level of expressed mRNA in the absence of chemical substance (yeast gene YOR273C): 2.6
The level of expressed mRNA in the presence of chemical substance/The level of expressed mRNA in the absence of chemical substance (yeast gene YPR200C): 0.6
